16 compounds from patent US8163909B2, “Substituted hydroxyethyl amine compounds as beta-secretase modulators and methods of use” (Amgen Inc., priority 2007, dated 2012) can be followed below.

Molecules are shown by their SMILES. pIC50: −log10 of the molar value. Read-outs that look alike come from different tables or passages of the source.

The target of test [1] is Beta Secretase enzyme (BACE) (Homo sapiens, UniProt P56817). In words: In vitro enzymatic BACE FRET (fluorescence resonance energy transfer) assay.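 Further: fluorescence read after 1 h with 50 nM quenched peptide substrate spanning the BACE cleavage site, in pH 4.2 acetate buffer containing 10% DMSO and nonionic detergent.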 The test is classed as biochemical.
Beta Secretase enzyme (BACE), sequence (P56817 46-501): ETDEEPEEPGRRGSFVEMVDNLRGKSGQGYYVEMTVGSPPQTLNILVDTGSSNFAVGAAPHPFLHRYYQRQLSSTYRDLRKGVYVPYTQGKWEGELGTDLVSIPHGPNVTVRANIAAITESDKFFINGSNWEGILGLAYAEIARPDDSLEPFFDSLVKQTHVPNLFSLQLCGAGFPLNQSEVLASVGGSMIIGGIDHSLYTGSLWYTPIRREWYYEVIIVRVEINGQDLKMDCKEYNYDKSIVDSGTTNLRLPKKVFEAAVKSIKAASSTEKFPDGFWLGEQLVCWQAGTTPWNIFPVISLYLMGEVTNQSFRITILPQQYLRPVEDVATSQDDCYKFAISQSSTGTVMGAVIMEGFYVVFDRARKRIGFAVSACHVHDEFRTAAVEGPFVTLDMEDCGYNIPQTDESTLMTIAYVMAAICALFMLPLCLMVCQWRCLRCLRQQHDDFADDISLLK
Test [2] deals with Aβ40 in conditioned medium of cells stably expressing Amyloid Precursor Protein (APP). In words: In vitro BACE cell-based assay (Aβ40 in conditioned medium, sandwich ELISA). (In general: In an ELISA, binding on a coated surface is turned into a signal by an enzyme label.)
The mark [3] stands for this setting: BACE enzyme FRET assay, read-out: BACE1 FRET assay (IC50).
The mark [4] stands for this setting: Homo sapiens, HEK293, HEK cells, cell-based assay, read-out: HEK cell assay (IC50).
Setting [5] is: BACE enzyme assay, read-out: BACE1 FRET assay (IC50).
[6] abbreviates: Table 1, read-out: BACE1 FRET assay.
Setting [7] is: Homo sapiens, HEK293, Table 1, HEK cells, read-out: HEK cell assay.
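Wherever HEK cell assay (IC50) is given: compounds added as a dilution series, secreted peptide quantified by europium time-resolved fluorescence readout, potency fitted from percent of control versus compound concentration.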
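Wherever HEK cell assay is given: compounds added as a dilution series, secreted peptide quantified by europium time-resolved fluorescence readout, potency fitted from percent of control versus compound concentration.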

Regarding `COC(=O)C1CC2(C1)CC(NCC(O)C(Cc1ccc(F)cc1)NC(C)=O)c1cc(CC(C)(C)C)cnc1O2` [compound 257, methyl (1s,3R,4′S)-4′-(((2R,3S)-3-(acetylamino)-4-(4-fluorophenyl)-2-hydroxybutyl)amino)-6′-(2,2-dimethylpropyl)-3′,4′-dihydrospiro[cyclobutane-1,2′-pyrano[2,3-b]pyridine]-3-carboxylate], the pIC50 is 6.57 in test [1] (setting [3]) and 6.43 in test [2] (HEK cells, cell-based assay, read-out: HEK cell assay (IC50)).
For `CC(=O)N[C@@H](Cc1ccccc1)[C@H](O)CN[C@H]1CC2(CCC2)Oc2ncc(CC(C)(F)F)cc21` [compound 272], the results for the pIC50 in test [1] (setting [3]) and in test [2] (setting [4]) were 7.82 and 7.83, respectively.
On to `CNc1nc(CC(C)(C)C)cc2c1OC1(CCC1)C[C@@H]2NC[C@@H](O)[C@H](Cc1ccccc1)NC(=O)COC` [compound 112], for which the pIC50 is 7.52 in test [1] (setting [5]) and 8.05 in test [2] (setting [4]).
For `CCc1cnc2c(c1)[C@@H](NC[C@@H](O)[C@H](Cc1cc(F)cc(-c3nccs3)c1)NC(=O)COC)CC1(CCC1)O2` [compound 728], the pIC50 in test [1] (BACE enzyme assay IC50, read-out: BACE1 FRET assay) was 7.52; in test [2] (Homo sapiens, HEK293, HEK cell-based assay IC50, read-out: HEK cell assay) it was 6.97.
With `CC(=O)N[C@@H](Cc1ccccc1)[C@H](O)CN[C@H]1CC2(CCC2)Oc2ncc(CC3(C(F)(F)F)CC3)cc21` [compound 318], the pIC50 was 7.46 in test [1] (setting [6]) and 7.07 in test [2] (setting [7]).
With `CC(C)(C)Cc1cnc2c(c1)[C@@H](NC[C@@H](O)[C@H](Cc1ccc(F)cc1)NC(=O)C(F)C(F)(F)F)CC1(CCC1)O2` (some centres unmarked) [compound 158], the pIC50 was 7.30 in test [1] (setting [5]) and 6.62 in test [2] (setting [4]).
`COCC(=O)N[C@@H](Cc1cccc(C#N)c1)[C@H](O)CN[C@H]1CC2(CCC2)Oc2ncc(CC(F)(F)F)cc21` [compound 347]: the results for the pIC50 in test [1] (setting [6]) and in test [2] (setting [7]) were 7.98 and 7.72, respectively.
Take `CC(=O)NC(Cc1ccc(F)cc1)C(O)CNC1CC2(CC(C(=O)O)C2)Oc2ncc(CC(C)(C)C)cc21` [compound 263, (1s,3R,4′S)-4′-(((2R,3S)-3-(acetylamino)-4-(4-fluorophenyl)-2-hydroxybutyl)amino)-6′-(2,2-dimethylpropyl)-3′,4′-dihydrospiro[cyclobutane-1,2′-pyrano[2,3-b]pyridine]-3-carboxylic acid]: the pIC50 in test [1] (setting [3]) was 7.97; in test [2] (setting [4]), 6.01.
Turning to `CCC(=O)Nc1cnc2c(c1)[C@@H](NC[C@@H](O)[C@H](Cc1ccc(F)cc1)NC(C)=O)CC1(CCC1)O2` [compound 85], the pIC50 was 6.05 in test [1] (setting [5]) and less than 5.00 in test [2] (setting [4]).
As to `CC(=O)N[C@@H](Cc1ccccc1)[C@H](O)CN[C@H]1CC2(CCC2)Oc2ncc(CC3CC3)cc21` [compound 202], the pIC50 in test [1] (setting [3]) was 7.47; in test [2] (setting [4]) it was 7.18.
As for `COC(=O)N[C@@H](Cc1ccc2c(c1)OCO2)[C@H](O)CN[C@H]1CC2(CCC2)Oc2ncc([C@H](F)C(C)(C)C)cc21` [compound 359], the pIC50 in test [1] (setting [6]) was 6.70; in test [2] (setting [7]), 6.68.
`COCC(=O)N[C@@H](Cc1cccc(F)c1)[C@H](O)CN[C@H]1CC2(CCC2)Oc2ncc(CC(F)(F)F)cc21` [compound 350]: the pIC50 in test [1] (setting [6]) is 8.04; in test [2] (setting [7]), 7.61.
For the compound `CC(=O)N[C@@H](Cc1ccc(F)cc1)[C@H](O)CNC1c2cc(CC(C)(C)C)cnc2OC2(CCC2)C1F` (some centres unmarked) [compound 355], the results for the pIC50 in test [1] (setting [6]) and in test [2] (setting [7]) were 6.93 and 6.95, respectively.
With `CO[C@H](C)C(=O)N[C@@H](Cc1cc(F)cc(F)c1)[C@H](O)CN[C@H]1CC2(CCC2)Oc2ncc(CC(C)(C)C(F)F)cc21` [compound 228], the pIC50 in test [1] (setting [3]) was 8.21; in test [2] (setting [4]), 8.12.
Turning to `COCC(=O)N[C@@H](Cc1ccccc1)[C@H](O)CN[C@H]1CC2(CCC2)Oc2ncc([C@H](F)C(C)(C)C)cc21` [compound 356], the pIC50 was 8.50 in test [1] (setting [6]) and 8.19 in test [2] (setting [7]).
For `CO[C@@H](C(=O)N[C@@H](Cc1ccc(F)cc1)[C@H](O)CN[C@H]1CC2(CCC2)Oc2ncc(CC(C)(C)C)cc21)C(F)(F)F` [compound 63], the pIC50 in test [1] (setting [5]) was 6.59; in test [2] (setting [4]), 6.89.
